Assay results as given in patent publication US11236102B2, “Oxabicycloheptane prodrugs” (Lixte Biotechnology, Inc., priority 2015, dated 2022).
Entries after “also recorded” stand apart in the source; their conditions may differ.

Assay: Pharmacokinetic study of 153 (iv, po) in SD rats: 153 and endothal in plasma, liver, brain
Type: in vivo, SD rats
Settings: for Endothal plasma concentration: individual rats
Procedure: The blood, liver and brain tissue samples were collected at predetermined times from rats. […] Compound were diluted shortly before use in 4% sodium bicarbonate for sterile injection (this is the standard pediatric solution of NaHCO3 with a pH of about 8.5).
Compound 153 was freshly prepared by diluting the drugs shortly before use in 4% sodium bicarbonate for sterile injection (this is the standard pediatric solution of NaHCO3 with a pH of about 8.5). The final concentrations of 153 solutions were 0.25 mg/mL. The 153 solutions were administered via iv or po route at dose volume of 5 ml/kg according to the latest body weight. Compound 157 was freshly prepared by diluting the drugs shortly before use in 4% sodium bicarbonate for sterile injection (this is the standard pediatric solution of NaHCO3 with a pH of about 8.5). The final concentrations of […] solutions were 0.3 mg/mL. The 157 solutions were administered via iv or po route at dose volume of 5 ml/kg according to the latest body weight.
Twelve (12) female SD rats per group were dosed by iv with 153 or 157. The rats were fasted overnight prior to dosing, with free access to water. Foods were withheld for 2 hours post-dose. Blood, liver and brain tissue samples in two animals each group were collected at each time point, within 10% of the scheduled time for each time point. Two extra animals were used for analytic method development.
Blood (>0.3 mL) were collected via aorta abdominalis in anaesthetic animals into tubes containing heparin at 15 min, 1, 2, 6, 10 and 24 hours after iv administration. Liver and brain tissues were collected immediately after animal death. The liver and brain tissues were excised and rinsed with cold saline to avoid blood residual. Upon collection, each sample was placed on ice and the blood samples were subsequently centrifuged (4° C., 11000 rpm, 5 min) to separate plasma.
The obtained plasma, liver and brain tissue samples were stored at −70° C. until LC-MS/MS analysis.
Two (2) female SD rats per group were dosed by po with 153 or 157. The rats were fasted overnight prior to dosing, with free access to water. Foods were withheld for 2 hours post-dose. Blood samples (>0.3 mL) were collected via aorta abdominalis in anaesthetic animals into tubes containing heparin at 30 min, 1, 2, 6, 10 and 24 hours after po administration.
To each sample, 20 μL IS-D (for blank samples, 20 μL acetonitrile:water (1:1) was added) and 300 μl acetonitrile was added. The sample mixture was vortexed for approximately 3 min. After centrifugation at 10000 rpm for 5 min at 4° C., 100 μL of the upper layer was transferred to a new tube and added 200 μL 0.4% formic acid in water (pH 6.0). The mixture was vortexed for approximately 3 min before injected onto the LC/MS/MS system for analysis.
On the day of the assay, the frozen liver and brain samples were thawed unassisted at room temperature. An about 200 mg weighed sample of each thawed tissue was placed into a plastic tube with water (0.6 mL) to facilitate homogenization. Tissue processing was conducted using a homogenizer for approximately 1 min, 200 μl homogenate was transferred into a fresh Eppendorf tube. To each tube, 50 μL IS-D was added and mixed. Then 600 ul acetonitrile was added and the sample mixture was vortexed for approximately 3 min. After centrifugation at 10000 rpm for 5 min at 4° C., 400 μL of the upper layer was transferred to a new tube and evaporate the supernatant to dryness at 35° C. Reconstitute the residue with 200 μL of 0.4% formic acid in water (pH6.0), and vortex for 3 min, submit for LC-MS/MS analysis.
Frozen unknown plasma samples were completely thawed at room temperature and vortexed thoroughly. With a pipette, 50 μL of plasma was transferred into a 2.0 mL Eppendorf tube. 50 μL of 0.1N HCl and 800 μL ethyl acetate were added into each sample. The sample mixture was vortexed for approximately 3 min.

O=C(O)C1C2CCC(O2)C1C(=O)O (stereo not shown) [Endothal, 7-oxabicyclo[2.2.1]heptane-2,3-dicarboxylic acid]
detectability in brain samples (endothal after single iv 153 at 1.25 mg/kg, 1.25 mg/kg): not detectable; also recorded: undetectable
Cmax (female, SD, rat, in vivo, po, 1.25 mg/kg): 46.9 ng/mL
AUC (female, Sprague-Dawley, rat, in vivo, iv, 1.25 mg/kg): 378 ng·h/mL
Endothal plasma concentration (iv administration of 153, 10 hr): BLQ
Endothal plasma concentration (iv administration of 153, 24 hr): BLQ
Endothal plasma concentration (po administration of 153, 10 hr): BLQ
AUClast in liver (rat, in vivo, iv, 1.25 mg/kg): 10820 ng·h/g
